These compounds were tested against Neuraminidase (Influenza B virus (strain B/Lee/1940), UniProt P03474) (assay: Inhibitory concentration of the compound was determined against neuraminidase B (B/Memphis/3/89) of Influenza virus).
Neuraminidase, sequence (P03474 whole entry): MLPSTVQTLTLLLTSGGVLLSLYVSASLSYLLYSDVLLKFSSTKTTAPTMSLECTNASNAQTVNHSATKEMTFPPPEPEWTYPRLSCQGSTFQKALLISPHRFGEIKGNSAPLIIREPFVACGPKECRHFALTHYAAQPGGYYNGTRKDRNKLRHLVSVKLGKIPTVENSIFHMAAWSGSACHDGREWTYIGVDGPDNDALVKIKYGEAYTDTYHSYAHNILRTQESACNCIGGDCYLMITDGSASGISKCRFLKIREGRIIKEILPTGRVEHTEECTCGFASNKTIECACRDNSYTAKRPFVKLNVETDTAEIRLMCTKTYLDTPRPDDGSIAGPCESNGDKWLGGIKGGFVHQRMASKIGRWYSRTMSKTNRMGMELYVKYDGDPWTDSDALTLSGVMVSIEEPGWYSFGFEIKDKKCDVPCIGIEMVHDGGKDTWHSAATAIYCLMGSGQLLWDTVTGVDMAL

In order of rising IC50:
1. COC(=O)[C@@H]1C[C@H](C(=O)O)N[C@H]1[C@H](CC(C)C)NC(C)=O  56 nM
2. COC(=O)[C@@H]1C[C@H](C(=O)O)O[C@H]1[C@H](CC(C)C)NC(C)=O  960 nM
3. CC(=O)N[C@@H](CC(C)C)[C@@H]1O[C@@H](C(=O)O)C[C@H]1c1c[nH]cn1  1000 nM

Reference: ChEMBL document CHEMBL1144460, “Design, synthesis, and structural analysis of inhibitors of influenza neuraminidase containing a 2,3-disubstituted tetrahydrofuran-5-carboxylic acid core” (Bioorg Med Chem Lett, 2005)
